In patent publication US20250129054A1 (Terran Biosciences Inc., priority 2022, published 2025):

Tested on: post-traumatic stress disorder (PTSD)
Experiment: Double-blind, randomized, placebo-controlled clinical trial of methylone-assisted psychotherapy in PTSD
Format: in vivo, human
Settings: at Study Conclusion
Protocol: A multicenter, randomized, double-blind, placebo-controlled trial is conducted to assess the efficacy and safety of methylone-assisted psychotherapy versus psychotherapy with placebo control in participants diagnosed with at least moderate post-traumatic stress disorder (PTSD).
This multicenter, randomized, double-blind, placebo-controlled trial is conducted at various sites in the United States with IRB approval from each study site. A flexible dose of methylone hydrochloride salt or placebo, followed by a supplemental half-dose unless contraindicated by patient's previous response or medical history, is also administered during the Treatment Period with psychotherapy in at least 3 blinded monthly Experimental Sessions. The Supplemental Dose extends the duration of drug effects on the participants during an Experimental Session. Methylone test groups are further subdivided into specific groups receiving only racemic methylone hydrochloride salt, S-methylone hydrochloride salt, or R-methylone hydrochloride salt. An optional Risk Evaluation and Mitigation Strategy (REMS) Protocol may be implemented for the racemic methylone, S-methylone, and placebo-groups. The Treatment Period lasts for approximately 12 weeks. During the Treatment Period, each Experimental Session is followed by three Intervening Sessions of non-drug psychotherapy. Each Experimental Session involves an overnight stay. The Primary Outcome measure, the change in Clinician Administered PTSD Scale for DSM-5 (CAPS-5), is determined by a blinded Independent Rater (IR) pool multiple times throughout the study. The study consists of separate periods for each participant. Initially, prospective participants undergo a Screening Period involving an initial eligibility assessment, a medical history intake, informed consent, and enrollment of eligible participants. Next, a Preparation Period is undertaken for enrolled participants involving medication tapering and clinical baseline assessments to confirm each participant meets enrollment criteria. As part of the Preparation Period, a detailed assessment of co-morbidities to PTSD is recorded. Participants may remain on prescribed courses of selective serotonin reuptake inhibitor (SSRI) or serotonin and norepinephrine reuptake inhibitor (SNRI) treatment. Dosages and/or frequency of administration of a prescribed SSRI or SNRI may be adjusted to fit within study parameters. Participants may be required to taper a prescribed course of medication in order to maintain eligibility within the study. The Treatment Period consists of three monthly Experimental Sessions and associated Intervening Sessions of integrative behavioral psychotherapy. The Treatment Period lasts approximately 12 weeks. Following the Treatment Period is a Follow-up Period and Study Conclusion. During the Follow-up Period and Study Conclusion, participants complete 4 weeks with no study visits, followed by a Study Conclusion visit.
This study compares the effects of three blinded Experimental Sessions of psychotherapy in combination with flexible doses of methylone or placebo administered as described below. Non-drug preparatory and intervening psychotherapy sessions are also included. Patient's weight is determined for dosage calculation. Initial dose is 100 mg unless this will result in a dosage of less than 1.5 mg/kg of patient weight. Initial dose thereby adjusted upward in 25 mg increments to deliver the lowest dose possible of at least 1.5 mg/kg of patient weight. Initial dose for Experimental Session 2 and 3 is cumulative dose calculated by adding the initial dose plus REMS protocol dose used the previous Experimental Session for each patient.
Randomization occurs prior to the initiation of Experimental Session 1. Each participant is provided the next randomized number in a sequence by a blinded study monitor. […]

[1] = compared to placebo-treated controls

CNC(C)C(=O)c1ccc2c(c1)OCO2 (racemic) [racemic methylone]
daytime sleepiness as measured by ESS: significant improvement in lessening daytime sleepiness | clinician-rated functional impairment score as measured by SDS [1]: significant improvement | depression as measured by HAM-D [1]: significant improvement | change in CAPS-5 assessment (with psychotherapy, compared to the placebo group, PTSD participants): significant mean reduction
